Test results taken from patent EP1000543A1, “A method for inducing resistance of plants to mycotoxin-producing fungi” (PROGUARD, INC., priority 1994, dated 1996).

Tests used:
[1] = system: Fusarium subglutinans f. sp. pini; experiment: bioassay based on inhibition of radial growth on potato dextrose agar (colony diameter); assay type: cell-based, Fusarium subglutinans f. sp. pini (isolate SL-1, UCB); details: for Radical Growth of Fusarium subglutinas f.sp. pini (colony diameter): 18° C, 5 days; for radical growth of Fusarium subglutinans: cinnamic aldehyde in vehicle with or without saponin, glutaraldehyde 2%
Description: A bioassay based on inhibition of radial growth of Fusarium subglutinans f. sp. pini was used to test various aldehyde formulations. The bioassay was performed in a double blind fashion under sterile conditions. All concentrations given are those of particular solutions before dilution in the agar. Eight ml of test formulation was pipetted into 200 ml of molten 2% potato dextrose agar (DIFCO), and the mixture was dispersed into 5 plastic petri dishes (25 ml dish). Test formulations of 5 ppm benomyl were used as a positive control and sterile H2O as a negative control. Each of four plates was inoculated at the center with an agar plug transferred from a growing PDA culture of Fusarium subglutinans f. sp. pini (isolate SL-1, UCB) for each test formulation. A fifth plate was left noninoculated as a control for inhibited growth.
All inoculated and non-inoculated plates were incubated at 18° C for 5 days, after which colony diameters were measured. […] No growth of the colony (diameter=0) indicates a maximum growth inhibition.

[2] = at 25°C; cited from earlier work
vapor pressure = assay type: physicochemical; details: at 25°C

With `CCCCNC(=O)n1c(NC(=O)OC)nc2ccccc21` [Benomyl, reference compound] the “Radical Growth of Fusarium subglutinas f.sp. pini (colony diameter)” value (shortened to “Radical Growth … (colony diameter)”) ([1]; positive control, 5 ppm benomyl, no Cinnamic Aldehyde) was 0.

For `O=CCCCC=O` [Glutaraldehyde, reference compound], the “Radical Growth … (colony diameter)” value ([1]; 2% glutaraldehyde, no Cinnamic Aldehyde) was 3.663 and the “radical growth of Fusarium subglutinans” value ([1]; result in words) was “inhibited”.

For `CCCCCCC(C=O)=Cc1ccccc1` [HCA, 2-hexyl-3-phenyl-2-propenal], the vapor pressure [2] is given as 70 x 10^-5 mm Hg.

In the case of `CCN(CC)c1cccc(C)c1` [N,N-diethyl-m-toluamine, reference compound], the vapor pressure [2] is given as 167 x 10^-5 mm Hg.

With cinnamic aldehyde the “Radical Growth … (colony diameter)” value ([1]; Cinnamic Aldehyde 10 ppm in 2% Tween 80, 6% NaHCO3, with Saponin) was 4.088, the “Radical Growth … (colony diameter)” value ([1]; Cinnamic Aldehyde 10 ppm in 2% Tween 80, 6% NaHCO3, no additive, concentration before dilution in agar) was 4.363 and the “Radical Growth … (colony diameter)” value ([1]; Cinnamic Aldehyde 100 ppm in 2% Tween 80, 6% NaHCO3, with Saponin) was 4.300. For the same compound, the “Radical Growth … (colony diameter)” value ([1]; Cinnamic Aldehyde 100 ppm in 2% Tween 80, 6% NaHCO3, no additive, concentration before dilution in agar) was 4.238, the “Radical Growth … (colony diameter)” value ([1]; Cinnamic Aldehyde 2,500 ppm in 2% Tween 80, 6% NaHCO3, with Saponin) was 3.600 and the “Radical Growth … (colony diameter)” value ([1]; Cinnamic Aldehyde 2,500 ppm in 2% Tween 80, 6% NaHCO3, no additive, concentration before dilution in agar) was 3.513. For the same compound, the “Radical Growth … (colony diameter)” value ([1]; Cinnamic Aldehyde 5000 ppm in 2% Tween 80, 6% NaHCO3, with Saponin) was 2.913, the “Radical Growth … (colony diameter)” value ([1]; Cinnamic Aldehyde 5000 ppm in 2% Tween 80, 6% NaHCO3, no additive, concentration before dilution in agar) was 2.980 and the “Radical Growth … (colony diameter)” value ([1]; Cinnamic Aldehyde 12,500 ppm in 2% Tween 80, 6% NaHCO3, with Saponin) was 0. For the same compound, the “Radical Growth … (colony diameter)” value ([1]; Cinnamic Aldehyde 12,500 ppm in 2% Tween 80, 6% NaHCO3, no additive, concentration before dilution in agar) was 0, the “Radical Growth … (colony diameter)” value ([1]; Cinnamic Aldehyde 25,000 ppm in 2% Tween 80, 6% NaHCO3, with Saponin) was 0 and the “Radical Growth … (colony diameter)” value ([1]; Cinnamic Aldehyde 25,000 ppm in 2% Tween 80, 6% NaHCO3, no additive, concentration before dilution in agar) was 0. For the same compound, the Radial growth ([1]; result in words, at 12,500 ppm) was “completely inhibited”, the “radical growth of Fusarium subglutinans” value ([1]; result in words) was “inhibited” and the “vapor pressure relative to HCA” value (vapor pressure) was “approximately 40 times higher”. The vapor pressure [2] was 2970 x 10^-5 mm Hg.
